Data on eight compounds can be found in patent US20230017045A1, “PYRIDINE AND PYRIMIDINE CARBOXYLATE HERBICIDES AND METHODS OF USE THEREOF” (Dow AgroSciences LLC, priority 2017, published 2023).

The structures appear in SMILES notation. Read-outs that look alike come from different tables or passages of the source.

The subject of this assay is test plant species. In words: Post-emergent herbicidal activity test (greenhouse, foliar spray, visual growth reduction). The format is in vivo. Particulars: post-emergence, 336 h, 140 g ai/ha, 14 days after application. In a few lines: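 Scoring used a 0 to 100 percent visual scale of growth reduction against solvent-treated controls, read 14 d after spraying. Applications went onto plants at first or second true leaf stage, 187 L/ha, with crop oil concentrate and X-77 surfactant in the carrier. Post-treatment watering was by subirrigation to avoid wash-off.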

Where [1] appears, read: ALOMY: blackgrass (Alopecurus myosuroides), read-out: Visual Growth Reduction (%) 14 Days After Application, ALOMY.
Setting [2] is: AMARE: redroot pigweed (Amaranthus retroflexus), read-out: Visual Growth Reduction (%) 14 Days After Application, AMARE.
[3] abbreviates: AVEFA: wild oat (Avena fatua), read-out: Visual Growth Reduction (%) 14 Days After Application, AVEFA.
The mark [4] stands for this setting: CHEAL: lambsquarters (Chenopodium album), read-out: Visual Growth Reduction (%) 14 Days After Application, CHEAL.
Setting [5] is: CIRAR: canada thistle (Cirsium arvense), read-out: Visual Growth Reduction (%) 14 Days After Application, CIRAR.
Setting [6] is: CYPES: yellow nutsedge (Cyperus esculentus), read-out: Visual Growth Reduction (%) 14 Days After Application, CYPES.
Setting [7] is: DIGSA: crabgrass (Digitaria sanguinalis), read-out: Visual Growth Reduction (%) 14 Days After Application, DIGSA.
Where [8] appears, read: ECHCG: barnyardgrass (Echinochloa crus-galli), read-out: Visual Growth Reduction (%) 14 Days After Application, ECHCG.
The mark [9] stands for this setting: IPOHE: ivy-leaf morning glory (Ipomoea hederacea), read-out: Visual Growth Reduction (%) 14 Days After Application, IPOHE.
Where [10] appears, read: KCHSC: kochia (Bassia scoparia), read-out: Visual Growth Reduction (%) 14 Days After Application, KCHSC.
Setting [11] is: ORYSA: rice (Oryza sativa), read-out: Visual Growth Reduction (%) 14 Days After Application, ORYSA.
The mark [12] stands for this setting: SETFA: giant foxtail (Setaria faberi), read-out: Visual Growth Reduction (%) 14 Days After Application, SETFA.
The mark [13] stands for this setting: SORVU: grain sorghum (Sorghum vulgare), read-out: Visual Growth Reduction (%) 14 Days After Application, SORVU.
Setting [14] is: STEME: common chickweed (Stellaria media), read-out: Visual Growth Reduction (%) 14 Days After Application, STEME.
The mark [15] stands for this setting: TRZAS: wheat, spring (Triticum aestivum), read-out: Visual Growth Reduction (%) 14 Days After Application, TRZAS.

As for `COC(=O)c1nc(-c2cc3c(cc2F)OC(F)(F)O3)c(F)cc1Cl` [F173, Methyl 3-chloro-5-fluoro-6-(2,2,6-trifluorobenzo[d] [1,3]dioxol-5-yl)picolinate], the pest or weed control at 140 g/ha under setting [1] was 60 to 74%; the pest or weed control at 140 g/ha under setting [2] lay within 95 to 100%; the pest or weed control at 140 g/ha under setting [3] was 75 to 84%; the pest or weed control at 140 g/ha under setting [4] fell in the range of 95 to 100%; the pest or weed control at 140 g/ha under setting [5] was in the range of 85 to 94%; the pest or weed control at 140 g/ha under setting [6] lay in the range of 75 to 84%. Also, the pest or weed control at 140 g/ha by setting is: under setting [7], 95 to 100%; under setting [8], 85 to 94%; under setting [9], 95 to 100%; under setting [10], 60 to 74%; under setting [11], 0 to 29%; under setting [12], 75 to 84%. In addition, the pest or weed control at 140 g/ha reads like this: under setting [13], 95 to 100%; under setting [14], 0 to 29%; under setting [15], 60 to 74%.
With `COC(=O)c1nc(-c2cc3c(cc2F)OC(F)(F)O3)c(Cl)cc1Cl` [F174, Methyl 3,5-dichloro-6-(2,2,6-trifluorobenzo[d] [1,3]dioxol-5-yl)picolinate], the pest or weed control at 140 g/ha is, setting by setting: under setting [1], 0 to 29%; under setting [2], 85 to 94%; under setting [3], 0 to 29%; under setting [4], 85 to 94%; under setting [5], 0 to 29%; under setting [6], 0 to 29%. Moreover, the pest or weed control at 140 g/ha was in the range of 85 to 94% under setting [7]; 0 to 29% under setting [8]; 95 to 100% under setting [9]; 0 to 29% under setting [10]; 0 to 29% under setting [11]; 30 to 44% under setting [12]. In addition, the pest or weed control at 140 g/ha by setting is: under setting [13], 85 to 94%; under setting [14], 0 to 29%; under setting [15], 0 to 29%.
Take `O=C(O)c1nc(-c2cc3c(cc2Cl)OC(F)(F)O3)c(F)cc1Cl` [F175, 3-Chloro-6-(6-chloro-2,2-difluorobenzo[d] [1,3]dioxol-5-yl)-5-fluoropicolinic acid]: the pest or weed control at 140 g/ha under setting [1] was 60 to 74%; the pest or weed control at 140 g/ha under setting [2] is 95 to 100%; the pest or weed control at 140 g/ha under setting [3] lay within 60 to 74%; the pest or weed control at 140 g/ha under setting [4] was 95 to 100%; the pest or weed control at 140 g/ha under setting [5] was in the range of 85 to 94%; the pest or weed control at 140 g/ha under setting [6] fell in the range of 0 to 29%. The pest or weed control at 140 g/ha was in the range of 95 to 100% under setting [7]; 85 to 94% under setting [8]; 95 to 100% under setting [9]; 85 to 94% under setting [10]; 45 to 59% under setting [11]; 85 to 94% under setting [12]. Besides, the pest or weed control at 140 g/ha under setting [13] was in the range of 95 to 100%, the pest or weed control at 140 g/ha under setting [14] fell in the range of 0 to 29% and the pest or weed control at 140 g/ha under setting [15] fell in the range of 85 to 94%.
On to `COC(=O)c1nc(-c2ccc(C(F)(F)C(N)=O)cc2Cl)ccc1Cl` [F176, Methyl 6-(4-(2-amino-1,1-difluoro-2-oxoethyl)-2-chlorophenyl)-3-chloropicolinate], for which the pest or weed control at 140 g/ha by setting is: under setting [1], 0 to 29%; under setting [2], 0 to 29%; under setting [3], 0 to 29%; under setting [4], 0 to 29%; under setting [5], 0 to 29%; under setting [6], 0 to 29%. Also, the pest or weed control at 140 g/ha fell in the range of 0 to 29% under setting [7]; 0 to 29% under setting [8]; 0 to 29% under setting [9]; 0 to 29% under setting [10]; 0 to 29% under setting [11]; 0 to 29% under setting [12]. In addition, the pest or weed control at 140 g/ha fell in the range of 0 to 29% under setting [13], 0 to 29% under setting [14] and 0 to 29% under setting [15].
With `COCC(F)(F)c1ccc(-c2ccc(Cl)c(C(=O)OC)n2)c(Cl)c1` [F177, methyl 3-chloro-6-(2-chloro-4-(1,1-difluoro-2-methoxyethyl)phenyl)picolinate], the pest or weed control at 140 g/ha under setting [1] lay in the range of 0 to 29%; the pest or weed control at 140 g/ha under setting [2] was in the range of 0 to 29%; the pest or weed control at 140 g/ha under setting [3] was 0 to 29%; the pest or weed control at 140 g/ha under setting [4] was in the range of 60 to 74%; the pest or weed control at 140 g/ha under setting [5] lay within 45 to 59%; the pest or weed control at 140 g/ha under setting [6] was in the range of 0 to 29%. In addition, the pest or weed control at 140 g/ha under setting [7] lay in the range of 0 to 29%; the pest or weed control at 140 g/ha under setting [8] fell in the range of 0 to 29%; the pest or weed control at 140 g/ha under setting [9] lay in the range of 60 to 74%; the pest or weed control at 140 g/ha under setting [10] was in the range of 45 to 59%; the pest or weed control at 140 g/ha under setting [11] lay in the range of 0 to 29%; the pest or weed control at 140 g/ha under setting [12] was in the range of 0 to 29%. Besides, the pest or weed control at 140 g/ha lay in the range of 30 to 44% under setting [13], 0 to 29% under setting [14] and 0 to 29% under setting [15].
Take `COC(=O)c1nc(-c2ccc(C(F)(F)C#N)cc2Cl)ccc1Cl` [F178, Methyl 3-chloro-6-(2-chloro-4-(cyanodifluoromethyl)phenyl)picolinate]: the pest or weed control at 140 g/ha by setting is: under setting [1], 0 to 29%; under setting [2], 0 to 29%; under setting [3], 0 to 29%; under setting [4], 0 to 29%; under setting [5], 0 to 29%; under setting [6], 0 to 29%. The pest or weed control at 140 g/ha reads like this: under setting [7], 0 to 29%; under setting [8], 0 to 29%; under setting [9], 0 to 29%; under setting [10], 0 to 29%; under setting [11], 0 to 29%; under setting [12], 0 to 29%. Further, the pest or weed control at 140 g/ha by setting is: under setting [13], 0 to 29%; under setting [14], 0 to 29%; under setting [15], 0 to 29%.
Regarding `COCC(F)(F)c1ccc(-c2ccc(Cl)c(C(=O)O)n2)c(Cl)c1` [F179, 3-chloro-6-(2-chloro-4-(1,1-difluoro-2-methoxyethyl)phenyl)picolinic acid], the pest or weed control at 140 g/ha is, setting by setting: under setting [1], 0 to 29%; under setting [2], 60 to 74%; under setting [3], 0 to 29%; under setting [4], 0 to 29%; under setting [5], 0 to 29%; under setting [6], 0 to 29%. The pest or weed control at 140 g/ha is, setting by setting: under setting [7], 0 to 29%; under setting [8], 0 to 29%; under setting [9], 95 to 100%; under setting [10], 60 to 74%; under setting [11], 0 to 29%; under setting [12], 0 to 29%. Also, the pest or weed control at 140 g/ha is, setting by setting: under setting [13], 0 to 29%; under setting [14], 0 to 29%; under setting [15], 0 to 29%.
Take `O=C(O)c1nc(-c2ccc(C(F)(F)C(=O)O)cc2Cl)ccc1Cl` [F180, 6-(4-(Carboxy-difluoromethyl)-2-chlorophenyl)-3-chloropicolinic acid]: the pest or weed control at 140 g/ha fell in the range of 0 to 29% under setting [1]; 0 to 29% under setting [2]; 0 to 29% under setting [3]; 0 to 29% under setting [4]; 0 to 29% under setting [5]; 0 to 29% under setting [6]. In addition, the pest or weed control at 140 g/ha under setting [7] lay in the range of 0 to 29%; the pest or weed control at 140 g/ha under setting [8] fell in the range of 0 to 29%; the pest or weed control at 140 g/ha under setting [9] lay in the range of 0 to 29%; the pest or weed control at 140 g/ha under setting [10] fell in the range of 0 to 29%; the pest or weed control at 140 g/ha under setting [11] is 0 to 29%; the pest or weed control at 140 g/ha under setting [12] was in the range of 0 to 29%. Moreover, the pest or weed control at 140 g/ha reads like this: under setting [13], 0 to 29%; under setting [14], 0 to 29%; under setting [15], 0 to 29%.
